Reference: the supplement of paper PMC3974653
Structures can show the parent of a compound that is named as a salt.

Test system: MTT (mouse pheochromocytoma)
Assay: IC50 of cell viability (ATP content)
Details: (24 or 48 h)
Summary of the method: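 The IC50 was fitted with a four-parameter logistic equation to normalised CellTiter-Glo ATP luminescence from MTT mouse pheochromocytoma cells. These cells, in white 1536-well plates, had been treated for 24 or 48 hrs with library compounds at 8 final concentrations between 0.5 nM and 46 µM, and luminescence was read after 15 minutes. Positive-control wells served as 100% and DMSO wells as 0%.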

| IC50 of cell viability [µM] | SMILES |
| --- | --- |
| > 46 | Nc1c(/N=N/c2ccc(-c3ccc(/N=N/c4cc(S(=O)(=O)[O-])c5ccccc5c4N)cc3)cc2)cc(S(=O)(=O)[O-])c2ccccc12 [CI DIRECT RED 28] |
| > 46 | O=C(NOCC1CC1)c1ccc(F)c(F)c1Nc1ccc(I)cc1Cl [CI-1040] |
| > 46 | CC(C)C(=O)OCC(=O)[C@@]12OC(C3CCCCC3)O[C@@H]1CC1C3CCC4=CC(=O)C=C[C@]4(C)C3[C@@H](O)C[C@@]12C (stereo partly specified) [CICLESONIDE] |
| > 46 | COc1ccc([C@]2(C#N)CC[C@H](C(=O)O)CC2)cc1OC1CCCC1 [CILOMILAST] |
| > 46 | O=C1CCc2cc(OCCCCc3nnnn3C3CCCCC3)ccc2N1 [CILOSTAZOL] |
| > 46 | CCC(CC)(CC(=O)Nc1cccc(/C=C/c2nc(C3CCC3)cs2)c1)C(=O)O [CINALUKASTUM] |
| > 46 | CN(C)CCCSc1ccccc1NC(=O)/C=C/c1ccccc1 [CINANSERIN] |
| > 46 | O=C(O)c1cc(-c2ccccc2)nc2ccccc12 [CINCHOPHENUM] |
| > 46 | COc1cc(/C=C/C(=O)N2CCN(CC(=O)N3CCCC3)CC2)cc(OC)c1OC [CINEPAZIDE MALEATE] |
| > 46 | O=C(O)/C=C/c1ccccc1 [CINNAMIC ACID] |
| > 46 | CCNC(=O)/C=C/c1cccc(Br)c1 [CINROMIDUM] |
| > 46 | CCC(C)(Oc1ccc(C2(c3ccc(OC(C)(CC)C(=O)O)cc3)CCCCC2)cc1)C(=O)O (stereo unspecified) [CLINOFIBRATE] |
| > 46 | CCCC(=O)O[C@]1(C(=O)CCl)C(C)CC2C3CCC4=CC(=O)C=CC4(C)[C@@]3(F)C(=O)CC21C (stereo partly specified) [CLOBETASONE BUTYRATE] |
| > 46 | CC(CN(C)C)C(C)(O)Cc1ccc(Cl)cc1 (stereo unspecified) [CLOBUTINOL HYDROCHLORIDE] |
| > 46 | CCN(CC)CCNC(=O)COc1ccc(Cl)cc1 [CLOFEXAMIDUM] |
| > 46 | CC(C)(C)CC(C)(C)c1ccc(O)c(Cc2ccc(Cl)cc2Cl)c1 [CLOFOCTOL] |
| > 46 | CN(C)CCCN1c2ccccc2CCc2ccc(Cl)cc21 [CLOMIPRAMINE] |
| > 46 | Clc1cccc(Cl)c1N=C1NCCN1 [CLONIDINE] |
| > 46 | Cc1c(Cl)cccc1Nc1ncccc1C(=O)O [CLONIXINUM] |

| IC50 of cell viability [µM] | SMILES |
| --- | --- |
| > 46 | COC(=O)C(c1ccccc1Cl)N1CCc2sccc2C1 (stereo unspecified) [CLOPIDOGREL BISULFATE] |
| > 46 | O=C([O-])CCC/C=C\C[C@@H]1[C@@H](/C=C/[C@@H](O)COc2cccc(Cl)c2)[C@H](O)C[C@@H]1O [CLOPROSTENOL SODIUM] |
| > 46 | CCOC(=O)COC1=C(Cl)C2=C(C=C1)\C(=C(CCN(CC)CC)/C(=O)O2)C [CLORICROMENUM] |
| > 46 | CN1CCN(CC1)\C2=N\C3=C(NC4=C2C=CC=C4)C=CC(=C3)Cl [CLOZAPINE] |
| > 46 | CCc1cccc(N(C)C(=N)Nc2cccc3ccccc23)c1.Cl [CNS-1102] |
| > 46 | CCC(C)C(=O)OC1CC/C=C2/C=C\C(C)C(CCC3CC(O)CC(=O)O3)[C@H]12 (stereo partly specified) [COMPACTIN] |
| > 46 | Cc1cc(C)c(NC(=O)C[C@H](CC(=O)[O-])c2cccc3ccccc23)c(C(=O)N2CCC3(CCCC3)CC2)c1.[Na+] [CR 2945] |
| > 46 | CC(=O)Oc1cccc(C)c1 [CRESYL ACETATE, M-] |
| > 46 | CC(=O)Oc1ccc(C)cc1 [CRESYL ACETATE] |
| > 46 | CC1CC(OC(=O)C(O)c2ccccc2)CC(C)(C)C1 (stereo unspecified) [CYCLANDELATE] |
| > 46 | CC(=O)OC1=CC=C(C=C1)C(=C2/CCCCC2)\C3=CC=C(OC(C)=O)C=C3 [CYCLOFENIL] |
| > 46 | N[S+]([O-])(=O)C1=C(Cl)C=C2NC(N[S+]([O-])(=O)C2=C1)C3CC\4CC3\C=C4 (stereo unspecified) [CYCLOTHIAZIDE] |
| > 46 | CN1CCC(CC1)=C2C3=C(C=CC=C3)\C=C/C4=C2C=CC=C4 [CYPROHEPTADINE] |
| > 46 | O=C(Nc1ccc(Cl)c(Cl)c1)C1CC1 [CYPROMID] |
| > 46 | CC(=O)[C@]1(O)CCC2C3/C=C(Cl)\C4=C\C(=O)C5CC5[C@@]4(C)C3CC[C@@]12C (stereo partly specified) [CYPROTERONE] |
| > 46 | CCOC(=O)NNc1ccc(N(CC)CC(C)O)nn1 (stereo unspecified) [Cadralazine] |
| > 46 | C=CC(=O)Nc1cc2c(Nc3ccc(F)c(Cl)c3)ncnc2cc1OCCCN1CCOCC1 [Canertinib] |
| > 46 | CCCCCOC(=O)Nc1nc(=O)n(C2O[C@H](C)[C@@H](O)[C@@H]2O)cc1F (stereo partly specified) [Capecitabine] |

Continued, compound first:

| SMILES | IC50 of cell viability [µM] |
| --- | --- |
| NC/1=N/C(=O)N(C[C@@H](CO)OC[P](O)(O)=O)/C=C1 [CIDOFOVIR] | > 46 |
| CC1(C)CC1C(=O)N/C(=C/CCCCSCC(N)C(=O)[O][Na])C(=O)O (stereo unspecified) [CILASTATIN SODIUM] | > 46 |
| CC1(C)C[C@@H]1C(=O)N/C(=C\CCCCSC[C@H](N)C(=O)O)C(=O)O [CILASTATIN SODIUM] | > 46 |
| CC(C)NCC(O)c1ccc(N)c(C#N)c1 (stereo unspecified) [CIMATEROL] | > 46 |
| O=C/C=C/c1ccccc1 [CINNAMALDEHYDE] | > 46 |
| C1C\N=C(\COC2=C(C=CC=C2)C3CC3)N1 [CIRAZOLINE] | > 46 |
| CCC1OC(=O)C(C)[C@@H](O[C@H]2C[C@@](C)(OC)C(O)C(C)O2)C(C)[C@@H](O[C@@H]2OC(C)CC(N(C)C)C2O)[C@@](C)(OC)CC(C)C(=O)[C@@H](C)C(O)[C@]1(C)O (stereo partly specified) [CLARITHROMYCIN] | > 46 |
| O=C(O)C1/C(=C/CO)OC2CC(=O)N21.[Li] (stereo unspecified) [CLAVULANATE LITHIUM] | > 46 |
| CC(C)(C)NCC(O)c1cc(Cl)c(N)c(Cl)c1 (stereo unspecified) [CLENBUTEROL] | > 46 |
| CCC[C@H]1C[C@H](C(=O)NC(C(C)Cl)C2O[C@@H](SC)C(OP(=O)(O)O)[C@@H](O)[C@@H]2O)N(C)C1 (stereo partly specified) [CLINDAMYCIN PO4] | > 46 |
| CN1C(=O)CC(=O)N(c2ccccc2)c2cc(Cl)ccc21 [CLOBAZAM] | > 46 |
| CC(Cc1ccccc1)NCc1ccccc1Cl (stereo unspecified) [CLOBENZOREX] | > 46 |
| CCOP(=O)(OCC)O/C(=C/Cl)c1ccc(Cl)cc1Cl [CLOFENVINFOSUM] | > 46 |
| Cc1nc(C)c(Cl)c(O)c1Cl [CLOPIDOL] | > 46 |
| CC(C)NCC(O)c1ccccc1Cl (stereo unspecified) [CLORPRENALINE HYDROCHLORIDE] | > 46 |
| CC1CNC(=O)CCC2(C)C(CC(N)=O)C3[N+]/4=C2/C(=C\5C(CCC(N)=O)C(C)(C)C\6=[N+]5[Co-3]47(CC8OC(C(O)C8O)[N]9C=NC%10=C(N)N=CN=C9%10)(N%11/C(=C(C)\C%12=[N+]7\C(=C6)C(CCC(N)=O)C%12(C)CC(N)=O)C(CCC(N)=O)C(C)(CC(N)=O)C3%11C)[N+]%13=C[N](C%14O[C@H](CO)[C@@H](O[P]([O-])(=O)O1)C%14O)C%15=C%13C=C(C)C(=C%15)C)C (stereo partly specified) [COENZYME B12] | > 46 |
| CCCCCCCCCCCCCCCC(=O)OCC(COP(=O)(O)OCC[N+](C)(C)C)OC(=O)CCCCCCCCCCCCCCC (stereo unspecified) [COLFOSCERIL PALMITATE] | > 46 |

| SMILES | IC50 of cell viability [µM] |
| --- | --- |
| CCC(C)C1NC(=O)C(CCNCS(=O)(=O)[O-])NC(=O)C(NC(=O)C(CCNCS(=O)(=O)[O-])NC(=O)C(NC(=O)C(CCNCS(=O)(=O)[O-])NC(=O)CCCCC(C)C)C(C)O)CCNC(=O)C(C(C)O)NC(=O)C(CCNCS(=O)(=O)[O-])NC(=O)C(CCNCS(=O)(=O)[O-])NC(=O)C(C(C)CC)NC1=O.[Na+].[Na+].[Na+].[Na+].[Na+] (stereo unspecified) [COLISTIMETHATE SODIUM] | > 46 |
| CC1C2CCC3C4C\C=C/5CC(CC[C@@]5(C)C4CC[C@]23CN1C)N(C)C (stereo partly specified) [CONESSINE] | > 46 |
| CCCC1CCCCN1 (stereo unspecified) [CONIINE] | > 46 |
| C[C@]\12CCC(=O)\C=C1CCC3C4CC[C@](O)(C(=O)CO)[C@]4(C)CC(=O)C23 (stereo partly specified) [CORTISONE] | > 46 |
| CCO[P](=S)(OCC)OC1=CC=C2\C(=C(Cl)/C(=O)OC2=C1)C [COUMOPHOS] | > 46 |
| CC1(C)CCC(NC(=O)[C@@H](N)CCC(=O)O)CC1 [CR 2249] | > 46 |
| CN1CC(=O)NC1=N [CREATININE] | > 46 |
| Nc1nc(N)nc(NC2CC2)n1 [CYROMAZINUM] | > 46 |
| NC(CS)C(=O)O (stereo unspecified) [CYSTEINE HYDROCHLORIDE] | > 46 |
| NC(CSSCC(N)C(=O)O)C(=O)O (stereo unspecified) [CYSTINE] | > 46 |
| CNC(=O)C(N)CSC(C)C1=C(C)C2=Cc3c(C(C)SCC(N)C(=O)NC)c(C)c4[n]3[Fe]35[n]6c(c(C)c(CCC(=O)O)c6=CC6=[N+]3C(=C4)C(C)=C6CCC(=O)O)=CC1=[N+]25 (stereo unspecified) [CYTOCHROME C] | > 46 |
| [O]=[Cd] [Cadmium oxide] | > 46 |
| Cn1c(=O)c2c(ncn2C)n(C)c1=O [Caffeine, citrated] | > 46 |
| CC(=O)CCC(=O)[O-] [Calcium Levulinate] | > 46 |
| CC1(C)[C@@H]2CC[C@@]1(C)C(=O)C2 [Camphor] | > 46 |
| CCCCCc1cc(O)c2c(c1)OC(C)(C)c1ccc(C)cc1-2 [Cannabinol] | > 46 |
| [K+].C[C@@]12CCC(=O)\C=C1\C=C/[C@@H]3[C@@H]2CC[C@]4(C)[C@@H]3CC[C@]4(O)CCC([O-])=O [Canrenoic acid potassium salt] | > 46 |
